# According to patent US20080280855A1, “Process For the Production of Intermediates For the Preparation of Tricyclic Benzimidazoles” (NYCOMED GmbH, priority 2005, published 2008):
# Counter-ions that a name gives are not always drawn.
# How the values were obtained:
# [1] = test system: pentagastrin-stimulated acid secretion of the perfused rat stomach; test: Testing of the secretion-inhibiting action on the perfused rat stomach; conditions: dose 1 μmol/kg i.d. (intraduodenal), anesthetized CD rat, female, continuous i.v. pentagastrin infusion; for Inhibition of acid secretion (%): in vivo
SMILES,melting point,inhibition in vivo at 1 µmol/kg [1],other results
Cc1nc2c(O)c(CC[C@@H](O)c3ccccc3)c(C(=O)N(C)C)cc2n1COCC[Si](C)(C)C,142 to 143 °C,–,–
"Cc1nc2c3c(c(C(=O)N(C)C)cc2n1C)CC[C@@H](c1ccccc1)O3 [A, (8S)-2,3-Dimethyl-8-phenyl-3,6,7,8-tetrahydro-chromeno[7,8-d]imidazole-5-carboxylic Acid Dimethylamide]",–,> 60%,–
"Cc1nc2c3c(c(C(=O)N(C)C)cc2[nH]1)CC[C@@H](c1ccccc1)O3 [C, (8S)-2-Methyl-8-phenyl-3,6,7,8-tetrahydro-chromeno[7,8-d]imidazole-5-carboxylic Acid Dimethylamide]",215 to 216 °C,> 90%,–
"Cc1nc2c3c(c(C(=O)N4CCC4)cc2n1C)CC[C@@H](c1ccccc1)O3 [D, (8S)-Azetidin-1-yl-(2,3-dimethyl-8-phenyl-3,6,7,8-tetrahydro-chromeno[7,8-d]imidazol-5-yl)-methanone]",–,> 50%,–
"CNC(=O)c1cc2c(nc(C)n2C)c2c1CC[C@@H](c1ccccc1)O2 [E, (8S)-2,3-Dimethyl-8-phenyl-3,6,7,8-tetrahydro-chromeno[7,8-d]imidazole-5-carboxylic Acid Methylamide]",–,> 80%,–
"Cc1nc2c(O)c(CC[C@@H](O)c3ccccc3)c(C(=O)N3CCC3)cc2n1C [Example 3, (3R)-Azetidin-1-yl-[7-hydroxy-6-(3-hydroxy-3-phenyl-propyl)-2,3-dimethyl-3H-benzoimidazol-5-yl]-methanone]",265 to 266 °C,–,–
"CNC(=O)c1cc2c(nc(C)n2C)c(O)c1CC[C@@H](O)c1ccccc1 [Example 4, (3R)-7-Hydroxy-6-(3-hydroxy-3-phenyl-propyl)-2,3-dimethyl-3H-benzoimidazole-5-carboxylic Acid Methylamide]",247 to 249 °C,–,–
"Cc1nc2c(O)c(CC[C@@H](O)c3ccc(F)cc3)c(C(=O)N(C)C)cc2n1C [Example 6, (3R)-6-[3-(4-Fluoro-phenyl)-3-hydroxy-propyl]-7-hydroxy-2,3-dimethyl-3H-benzoimidazole-5-carboxylic Acid Dimethylamide]",276 to 277 °C,–,–
"Cc1ccccc1[C@H](O)CCc1c(C(=O)N(C)C)cc2c(nc(C)n2C)c1O [Example 7, (3R)-7-Hydroxy-6-(3-hydroxy-3-o-tolyl-propyl)-2,3-dimethyl-3H-benzoimidazole-5-carboxylic Acid Dimethylamide]",139 to 140 °C,–,–
"Cc1nc2c(O)c(CC[C@@H](O)c3ccc4ccccc4c3)c(C(=O)N(C)C)cc2n1C [Example 10, (3R)-7-Hydroxy-6-(3-hydroxy-3-naphthalen-2-yl-propyl)-2,3-dimethyl-3H-benzoimidazole-5-carboxylic Acid Dimethylamide]",145 to 147 °C,–,–
"CCc1ccccc1[C@H](O)CCc1c(C(=O)N(C)C)cc2c(nc(C)n2C)c1O [Example 11, (3R)-6-[3-(2-Ethyl-phenyl)-3-hydroxy-propyl]-7-hydroxy-2,3-dimethyl-3H-benzoimidazole-5-carboxylic Acid Dimethylamide]",135 to 137 °C,–,–
"Cc1nc2c(O)c(CC[C@@H](O)c3cccs3)c(C(=O)N(C)C)cc2n1C [Example 12, (3R)-7-Hydroxy-6-(3-hydroxy-3-thiophen-2-yl-propyl)-2,3-dimethyl-3H-benzoimidazole-5-carboxylic Acid Dimethylamide]",264 to 265 °C,–,–
"Cc1ccccc1[C@@H](O)CCc1c(C(=O)N(C)C)cc2c(nc(C)n2C)c1O [Example 25, (3S)-7-Hydroxy-6-(3-hydroxy-3-o-tolyl-propyl)-2,3-dimethyl-3H-benzoimidazole-5-carboxylic Acid Dimethylamide]",203 to 205 °C,–,–
"Cc1nc2c3c(c(C(=O)N(C)C)cc2n1C)CC[C@@H](c1ccccc1F)O3 [F, (8S)-8-(2-Fluoro-phenyl)-2,3-dimethyl-3,6,7,8-tetrahydro-chromeno[7,8-d]imidazole-5-carboxylic Acid Dimethylamide]",–,> 70%,–
"Cc1nc2c3c(c(C(=O)N(C)C)cc2n1C)CC[C@@H](c1ccc(F)cc1)O3 [G, (8S)-8-(4-Fluoro-phenyl)-2,3-dimethyl-3,6,7,8-tetrahydro-chromeno[7,8-d]imidazole-5-carboxylic Acid Dimethylamide Hydrochloride]",–,100%,–
"Cc1ccccc1[C@@H]1CCc2c(C(=O)N(C)C)cc3c(nc(C)n3C)c2O1 [H, (8S)-2,3-Dimethyl-8-o-tolyl-3,6,7,8-tetrahydro-chromeno[7,8-d]imidazole-5-carboxylic Acid Dimethylamido]",–,–,Inhibition of acid secretion (%) [1]: 100%
"Cc1nc2c3c(c(C(=O)N(C)C)cc2n1C)CC[C@@H](c1ccccc1Cl)O3 [I, (8S)-8-(2-Chloro-phenyl)-2,3-dimethyl-3,6,7,8-tetrahydro-chromeno[7,8-d]imidazol-5-carboxylic Acid Dimethylamide]",–,> 70%,–
"CCc1ccccc1[C@@H]1CCc2c(C(=O)N(C)C)cc3c(nc(C)n3C)c2O1 [L, (8S)-(2-Ethyl-phenyl)-2,3-dimethyl-3,6,7,8-tetrahydro-chromeno[7,8-d]imidazole-5-carboxylic Acid Dimethylamide]",–,–,Inhibition of acid secretion (%) [1]: >70%
"Cc1cc(F)ccc1[C@@H]1CCc2c(C(=O)N(C)C)cc3c(nc(C)n3C)c2O1 [N, (8S)-8-(4-Fluoro-2-methyl-phenyl)-2,3-dimethyl-3,6,7,8-tetrahydro-chromeno[7,8-d]imidazole-5-carboxylic Acid Dimethylamide]",–,100%,–
"Cc1ccccc1[C@@H]1CCc2c(C(=O)N3CCCC3)cc3c(nc(C)n3C)c2O1 [O, (8S)-(2,3-Dimethyl-8-o-tolyl-3,6,7,8-tetrahydro-chromeno[7,8-d]imidazol-5-yl)-pyrrolidin-1-yl-methanone]",–,> 60%,–
"CNC(=O)c1cc2c(nc(C)n2C)c2c1CC[C@@H](c1ccccc1C)O2 [P, (8S)-2,3-Dimethyl-8-o-tolyl-3,6,7,8-tetrahydro-chromeno[7,8-d]imidazole-5-carboxylic Acid Methylamide]",–,100%,–
"Cc1ccccc1[C@@H]1CCc2c(C(=O)N3CCC3)cc3c(nc(C)n3C)c2O1 [Q, (8S)-Azetidin-1-yl-(2,3-dimethyl-8-o-tolyl-3,6,7,8-tetrahydro-chromeno[7,8-d]imidazol-5-yl)-methanone]",–,100%,–
"Cc1sccc1[C@@H]1CCc2c(C(=O)N(C)C)cc3c(nc(C)n3C)c2O1 [V, (8S)-2,3-Dimethyl-8-(2-methyl-thiophen-3-yl)-3,6,7,8-tetrahydro-chromeno[7,8-d]imidazole-5-carboxylic acid dimethylamide]",–,100%,–
"Cc1ccccc1[C@@H]1CCc2c(C(=O)NC3CC3)cc3c(nc(C)n3C)c2O1 [W, (8S)-2,3-Dimethyl-8-o-tolyl-3,6,7,8-tetrahydro-chromeno[7,8-d]imidazole-5-carboxylic acid cyclopropylamide]",–,100%,–
